According to ChEMBL document CHEMBL3421538, “Structure-activity relationships and molecular studies of novel arylpiperazinylalkyl purine-2,4-diones and purine-2,4,8-triones with antidepressant and anxiolytic-like activity” (Eur J Med Chem, 2015):
Active and inactive are the calls of the source. No cut-off for these calls is given here.

How the values were obtained:
D(2) dopamine receptor [1] = molecular target: T1, D(2) dopamine receptor (Homo sapiens, UniProt P14416); test: Displacement of [3H]N-methylspiperone from human recombinant dopamine D2 receptor expressed in CHOK1 cells incubated for 60 mins by microbeta plate reader based method; assay type: cell-based, CHO-K1
T1 sequence (P14416 whole entry): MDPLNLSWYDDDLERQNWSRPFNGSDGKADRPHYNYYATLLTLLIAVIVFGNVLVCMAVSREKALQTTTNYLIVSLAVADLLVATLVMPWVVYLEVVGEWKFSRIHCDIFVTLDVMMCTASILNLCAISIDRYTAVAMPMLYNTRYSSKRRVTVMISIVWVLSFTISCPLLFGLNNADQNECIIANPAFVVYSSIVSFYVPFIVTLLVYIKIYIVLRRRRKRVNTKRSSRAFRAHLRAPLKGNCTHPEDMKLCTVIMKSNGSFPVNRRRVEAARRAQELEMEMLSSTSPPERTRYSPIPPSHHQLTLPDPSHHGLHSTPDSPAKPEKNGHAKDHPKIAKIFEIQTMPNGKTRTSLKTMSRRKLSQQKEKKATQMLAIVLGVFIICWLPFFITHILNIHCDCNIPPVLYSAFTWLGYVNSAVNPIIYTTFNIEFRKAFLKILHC

D(2) dopamine receptor [2] = molecular target: T1, D(2) dopamine receptor; test: Antagonist activity against human dopamine D2L receptor expressed in HEK293 cells assessed as inhibition of […]-induced cAMP levels at 0.1 uM; assay type: functional, cell-based
Mus musculus [3] = test: Anxiolytic-like activity in Swiss mouse assessed as increase in number of punished crossings measured during 60 seconds period at 2.5 to 10 mg/kg, ip by four-plate test; assay type: functional, organism-based
[4] = molecular target: D(3) dopamine receptor (Homo sapiens) (UniProt P35462); test: Displacement of [3H]N-methylspiperone from dopamine D3 receptor (unknown origin) assessed as total radioligand binding at 1 uM incubated for 60 mins by microbeta plate reader based method
D(3) dopamine receptor (Homo sapiens), sequence (P35462 whole entry): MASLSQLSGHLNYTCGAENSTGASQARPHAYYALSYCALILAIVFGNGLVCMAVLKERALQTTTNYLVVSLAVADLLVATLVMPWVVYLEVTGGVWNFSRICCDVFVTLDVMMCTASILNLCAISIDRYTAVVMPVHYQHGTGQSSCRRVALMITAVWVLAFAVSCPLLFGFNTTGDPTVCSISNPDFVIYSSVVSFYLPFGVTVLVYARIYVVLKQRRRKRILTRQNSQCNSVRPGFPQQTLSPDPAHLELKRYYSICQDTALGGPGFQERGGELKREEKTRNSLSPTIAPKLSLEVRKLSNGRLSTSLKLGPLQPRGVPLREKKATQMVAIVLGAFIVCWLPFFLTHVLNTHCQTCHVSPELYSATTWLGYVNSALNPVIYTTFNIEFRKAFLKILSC

D(2) dopamine receptor [5] = molecular target: T1, D(2) dopamine receptor; test: Antagonist activity against human dopamine D2L receptor expressed in HEK293 cells assessed as inhibition of […]-induced cAMP levels at 1 uM; assay type: functional, cell-based
[6] = molecular target: T2, 5-hydroxytryptamine receptor 1A (Rattus norvegicus) (UniProt P19327); test: Displacement of [3H]8-OH-DPAT from rat hippocampus 5-HT1A receptor assessed as total radioligand binding at 1 uM incubated for 20 mins by microbeta plate reader based method
T2 sequence (whole entry): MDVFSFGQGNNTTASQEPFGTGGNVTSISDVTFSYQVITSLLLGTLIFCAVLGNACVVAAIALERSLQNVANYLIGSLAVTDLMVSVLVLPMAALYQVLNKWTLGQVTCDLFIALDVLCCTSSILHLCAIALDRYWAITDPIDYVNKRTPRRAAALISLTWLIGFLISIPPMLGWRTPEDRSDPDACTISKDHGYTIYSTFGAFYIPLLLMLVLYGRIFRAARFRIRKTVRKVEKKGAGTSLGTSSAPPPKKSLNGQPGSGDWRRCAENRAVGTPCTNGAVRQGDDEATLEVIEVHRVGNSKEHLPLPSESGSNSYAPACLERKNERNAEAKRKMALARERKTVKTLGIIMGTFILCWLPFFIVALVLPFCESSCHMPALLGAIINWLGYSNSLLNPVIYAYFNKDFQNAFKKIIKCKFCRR

[7] = molecular target: T3, 5-hydroxytryptamine receptor 7 (Homo sapiens, UniProt P34969); test: Antagonist activity against human 5-HT7 receptor expressed in HEK293 cells assessed as inhibition of 5-HT-induced cAMP levels at 1 uM; assay type: functional, cell-based
T3 sequence (P34969 whole entry): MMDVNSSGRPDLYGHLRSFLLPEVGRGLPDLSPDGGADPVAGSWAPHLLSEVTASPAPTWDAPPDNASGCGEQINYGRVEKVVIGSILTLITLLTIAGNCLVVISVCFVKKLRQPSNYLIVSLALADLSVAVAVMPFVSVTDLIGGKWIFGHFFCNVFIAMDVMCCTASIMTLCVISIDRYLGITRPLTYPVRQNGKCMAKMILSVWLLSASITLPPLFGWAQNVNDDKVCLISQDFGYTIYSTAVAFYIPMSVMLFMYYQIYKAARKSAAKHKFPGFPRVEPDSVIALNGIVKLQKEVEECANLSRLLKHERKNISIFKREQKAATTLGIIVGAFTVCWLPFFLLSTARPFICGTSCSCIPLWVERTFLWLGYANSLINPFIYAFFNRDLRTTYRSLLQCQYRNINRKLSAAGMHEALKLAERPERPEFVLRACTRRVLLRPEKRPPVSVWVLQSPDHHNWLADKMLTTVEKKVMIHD

Mus musculus [8] = test: Toxicity in Swiss mouse assessed as spontaneous locomotor activity at 2.5 to 10 mg/kg, ip; assay type: organism-based; set-up: dose 2.5-10 mg/kg, route intraperitoneal; conditions: in vivo
[9] = molecular target: T4, 5-hydroxytryptamine receptor 6 (Homo sapiens, UniProt P50406); test: Displacement of [3H]LSD from human recombinant 5-HT6 receptor expressed in HEK293 cells assessed as total radioligand binding at 1 uM incubated for 60 mins by microbeta plate reader based method; assay type: cell-based
T4 sequence (P50406 whole entry): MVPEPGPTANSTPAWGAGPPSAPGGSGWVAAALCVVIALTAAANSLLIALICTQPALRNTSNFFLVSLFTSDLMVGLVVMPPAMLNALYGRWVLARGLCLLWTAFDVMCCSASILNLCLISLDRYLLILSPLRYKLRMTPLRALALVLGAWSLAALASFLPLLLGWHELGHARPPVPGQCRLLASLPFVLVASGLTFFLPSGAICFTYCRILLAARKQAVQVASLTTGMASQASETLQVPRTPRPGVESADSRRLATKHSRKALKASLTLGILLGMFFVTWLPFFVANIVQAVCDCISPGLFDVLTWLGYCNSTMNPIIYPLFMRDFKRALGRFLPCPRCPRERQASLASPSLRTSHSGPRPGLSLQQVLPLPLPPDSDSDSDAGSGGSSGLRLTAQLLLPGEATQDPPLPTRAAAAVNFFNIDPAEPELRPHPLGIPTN

[10] = molecular target: T5, 5-hydroxytryptamine receptor 1A (Homo sapiens) (UniProt P08908); test: Agonist activity at human 5-HT1A receptor expressed in HEK293 cells assessed as stimulation of cAMP levels at 0.1 uM relative to 8-OH-DPAT; assay type: functional, cell-based
T5 sequence (whole entry): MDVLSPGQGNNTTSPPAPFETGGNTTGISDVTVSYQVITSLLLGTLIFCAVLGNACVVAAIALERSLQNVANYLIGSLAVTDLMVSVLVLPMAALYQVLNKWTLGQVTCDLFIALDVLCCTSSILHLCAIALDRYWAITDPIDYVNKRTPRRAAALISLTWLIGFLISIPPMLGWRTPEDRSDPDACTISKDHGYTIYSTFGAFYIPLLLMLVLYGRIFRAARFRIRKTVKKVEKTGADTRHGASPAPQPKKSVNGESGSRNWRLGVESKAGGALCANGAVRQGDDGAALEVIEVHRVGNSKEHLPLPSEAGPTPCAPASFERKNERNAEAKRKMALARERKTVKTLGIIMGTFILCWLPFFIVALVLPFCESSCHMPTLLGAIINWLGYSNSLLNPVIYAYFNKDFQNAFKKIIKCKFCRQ

[11] = molecular target: T3, 5-hydroxytryptamine receptor 7; test: Agonist activity at human 5-HT7 receptor expressed in HEK293 cells assessed as stimulation of cAMP levels at 1 uM relative to 5HT; assay type: functional, cell-based
D(2) dopamine receptor [12] = molecular target: T1, D(2) dopamine receptor; test: Agonist activity at human D2L receptor expressed in HEK293 cells assessed as stimulation of cAMP levels at 0.1 uM relative to dopamine; assay type: functional, cell-based
[13] = molecular target: T6, 5-hydroxytryptamine receptor 1A (Rattus norvegicus, UniProt P19327); test: Displacement of [3H]8-OH-DPAT from rat hippocampus 5-HT1A receptor incubated for 20 mins by microbeta plate reader based method
T6 sequence (P19327 whole entry): T2 sequence (whole entry)

[14] = molecular target: T5, 5-hydroxytryptamine receptor 1A (Homo sapiens); test: Antagonist activity against human 5-HT1A receptor expressed in HEK293 cells assessed as inhibition of […]-induced cAMP levels at 1 uM; assay type: functional, cell-based
[15] = molecular target: T3, 5-hydroxytryptamine receptor 7; test: Displacement of [3H]LSD from human recombinant 5-HT7 receptor expressed in CHOK1 cells incubated for 60 mins by microbeta plate reader based method; assay type: cell-based, CHO-K1
[16] = Selectivity index, ratio of Ki for rat hippocampus 5-HT1A receptor to Ki for human recombinant 5-HT7 receptor
D(2) dopamine receptor [17] = molecular target: T1, D(2) dopamine receptor; test: Agonist activity at human D2L receptor expressed in HEK293 cells assessed as stimulation of cAMP levels at 1 uM relative to dopamine; assay type: functional, cell-based
[18] = molecular target: T5, 5-hydroxytryptamine receptor 1A (Homo sapiens); test: Antagonist activity against human 5-HT1A receptor expressed in HEK293 cells assessed as inhibition of […]-induced cAMP levels at 0.1 uM; assay type: functional, cell-based
[19] = molecular target: T2, 5-hydroxytryptamine receptor 1A (Rattus norvegicus); test: Displacement of [3H]8-OH-DPAT from rat hippocampus 5-HT1A receptor assessed as total radioligand binding at 1.66 x 10^-7 M incubated for 20 mins by microbeta plate reader based method
[20] = molecular target: T3, 5-hydroxytryptamine receptor 7; test: Agonist activity at human 5-HT7 receptor expressed in HEK293 cells assessed as stimulation of cAMP levels at 0.1 uM relative to 5HT; assay type: functional, cell-based
[21] = molecular target: D(3) dopamine receptor (Homo sapiens) (UniProt P35462); test: Displacement of [3H]N-methylspiperone from dopamine D3 receptor (unknown origin) assessed as total radioligand binding at 1.66 x 10^-7 M incubated for 60 mins by microbeta plate reader based method
[22] = molecular target: T3, 5-hydroxytryptamine receptor 7; test: Antagonist activity against human 5-HT7 receptor expressed in HEK293 cells assessed as inhibition of 5-HT-induced cAMP levels at 0.1 uM; assay type: functional, cell-based
Mus musculus [23] = test: Antidepressant-like activity in Swiss mouse assessed as reduction in immobility time at 1.25 to 5 mg/kg, ip administered 60 mins before test; assay type: functional, organism-based
Mus musculus [24] = test: Anxiolytic-like activity in Swiss mouse assessed as increase in number of punished crossings measured during 60 seconds period at 5 mg/kg, ip by four-plate test; assay type: functional; conditions: route intraperitoneal
[25] = molecular target: T4, 5-hydroxytryptamine receptor 6; test: Displacement of [3H]LSD from human recombinant 5-HT6 receptor expressed in HEK293 cells assessed as total radioligand binding at 1.66 x 10^-7 M incubated for 60 mins by microbeta plate reader based method; assay type: cell-based
[26] = molecular target: T5, 5-hydroxytryptamine receptor 1A (Homo sapiens); test: Agonist activity at human 5-HT1A receptor expressed in HEK293 cells assessed as stimulation of cAMP levels at 1 uM relative to 8-OH-DPAT; assay type: functional, cell-based
Mus musculus [27] = test: Anxiolytic-like activity in Swiss mouse assessed as increase in number of punished crossings measured during 60 seconds period at 25 mg/kg, ip by four-plate test; assay type: functional; conditions: route intraperitoneal
Mus musculus [28] = test: Antidepressant-like activity in Swiss mouse assessed as reduction in immobility time at 5 mg/kg, ip administered 60 mins before test; assay type: functional; set-up: scale not given: the % may be the effect or the level left; conditions: route intraperitoneal
Mus musculus [29] = test: Antidepressant-like activity in Swiss mouse assessed as reduction in immobility time at 2.5 to 10 mg/kg, ip administered 60 mins before test; assay type: functional, organism-based
[30] = molecular target: T4, 5-hydroxytryptamine receptor 6; test: Displacement of [3H]LSD from human recombinant 5-HT6 receptor expressed in HEK293 cells incubated for 60 mins by microbeta plate reader based method; assay type: cell-based
Mus musculus [31] = test: Toxicity in Swiss mouse assessed as spontaneous locomotor activity at 2.5 to 10 mg/kg, ip measured during 2 to 6 mins; assay type: organism-based; set-up: route intraperitoneal; conditions: in vivo
Mus musculus [32] = test: Toxicity in Swiss mouse assessed as spontaneous locomotor activity at 5 to 20 mg/kg, ip measured during 2 to 6 mins; assay type: organism-based; set-up: route intraperitoneal; conditions: in vivo

| Compound | Ki (D(2) dopamine receptor [1]) [µM] | inhibition (D(2) dopamine receptor [2]) [%] | Activity (Mus musculus [3]) | inhibition (D(2) dopamine receptor [5]) [%] | Activity (Mus musculus [8]) | Activity [10] [%] | Activity (D(2) dopamine receptor [12]) [%] | Ki [13] [µM] | inhibition [14] [%] | Ki [15] [µM] | Ratio Ki [16] | Activity (D(2) dopamine receptor [17]) [%] | inhibition [18] [%] | Activity [26] [%] | other results |
| --- | --- | --- | --- | --- | --- | --- | --- | --- | --- | --- | --- | --- | --- | --- | --- |
| Cn1c(=O)c2c(nc3n(CCCCCN4CCN(c5ccccc5O)CC4)c(-c4ccccc4)cn23)n(C)c1=O | 0.024 | 12.2 | Active | 71.2 | Non-toxic | 22.9 | 12.3 | 0.009 | 91.8 | 0.043 | 0.2 | 7.7 | 68.3 | 32.5 | Activity [4]: 39%; Activity [6]: 9%; inhibition [7]: 58.9%; Activity [9]: 60%; Activity [11]: 5.3%; Activity [19]: 47%; Activity [20]: 5.1%; Activity [21]: 81%; inhibition [22]: 11%; Activity (Mus musculus [23]): inactive; Activity (Mus musculus [24]): 90%; Activity [25]: 87% |
| Cc1cn2c3c(=O)n(C)c(=O)n(C)c3nc2n1CCCCCN1CCN(c2ccc(Cl)c(Cl)c2)CC1 | 0.059 | 20.9 | Active | 55.9 | Non-toxic | 2.3 | 0.8 | 0.022 | 87.6 | 0.111 | 0.19 | 10 | 92.9 | 18.7 | Activity (Mus musculus [27]): 124%; Activity (Mus musculus [28]): 25%; Activity (Mus musculus [29]): Active; Ki [30]: 0.405 µM; Activity (Mus musculus [31]): Non-toxic |
| CN(C)CCCN1c2ccccc2CCc2ccccc21.Cl [IMIPRAMINE HYDROCHLORIDE] |  |  |  |  |  |  |  |  |  |  |  |  |  |  | Activity (Mus musculus [32]): Non-toxic |
